What was measured:
[1] = system: human fibroblasts (MRC-5); test: Cytotoxicity, cellular viability (CCK-8/WST-8) on MRC-5; assay type: cell-based
Procedure: (§1) The cellular viability is evaluated by a colorimetric method based on the detection of the conversion of a salt of the tetrazolium (WST-8) by the metabolically active cells (CCK-8 kit, Sigma, Lyons, France) (Molecules, 2014, 19(8), 12048-12064; J. Pharmacol. Toxicol. Methods., 2007, 56(1), 58-62). Living cells have mitochondrial dehydrogenases that reduce the WST-8 (2-(2-methoxy-4-nitrophenyl)-3-(4-nitrophenyl)-5-(2,4-disulfophenyl)-2H-tetrazolium), monosodium salt) to formazan of an orange colour, which dissolves directly in the culture medium in the presence of 1-Methoxy PMS (1-methoxy-5-methylphenazinium methyl sulphate). After an incubation for 1 h at 37° C., the absorbance of the formazan is measured at 450 nm. The absorbance is directly proportional to the number of living cells.
(§2) Briefly, the cells are inoculated in 96-well plates at a rate of 5.10^3 cells per well in 100 μL of the suitable medium until subconfluence. The cells are then washed with D-PBS, then treated with various concentrations (10 μM, 100 μM) of the products to be tested in triplicates for 24 and 48 h. A positive control is carried out with 10% of DMSO. The CCK-8 (10 μL) solution is then added to each well for an incubation for 1 h at 37° C. The measurement of the absorbance is taken at 450 nm using a Perkin Elmer 2103 Envision® microplate reader.
(§3) The viability of the cells is expressed as a % of the control (untreated cells) by the mean±standard deviation of triplicates forming a representative experiment or of three independent experiments conducted in triplicate.

[2] = Formation of adducts with MGO, kinetic study by HPLC; assay type: physicochemical; settings: compound 10 mM, MGO 20 mM, 37° C.; for disappearance of the free scavenger to the benefit of adducts with the MGO: after 15 min of incubation
Procedure: The compounds to be tested are incubated at 37° C. in the presence of MGO or of MDA. A kinetic study aiming to report on the formation of adducts with the MGO or MDA is then carried out via HPLC analysis.
The compounds to be tested (30 μmol) are dissolved in PBS (1.5 mL). An aqueous solution (qsp 1.25 mL) of MGO at 40% in water (250 μmol) is then prepared and in parallel, MDA bis-(diOEt)-acetal (250 μmol) is set to react with a solution of HCl 1N (2 eq) in water (qsp 1.25 mL) for 1 h at room temperature. An aqueous solution of NaOH 0.05N is also required to neutralise the reaction medium (5 mL).
The solution of the compound to be tested (625 μL—final concentration in the medium=10 mM) is then set to react with the solution of MGO or of MDA prepared extemporaneously (125 μL—final concentration in the medium=20 mM) in the presence of NaOH 0.05 N (0.5 mL).
The various mixtures are then incubated in the oven at 37° C. for 24 h.
A sampling of each mixture (100 μL) is taken at regular intervals of time (0.25; 0.5; 1; 5 and 24 h) and stored at −20° C. in order to stop the reaction. After dilution in a MeCN/H2O 98:2 mixture at room temperature, the HPLC analysis is carried out on a Shimadzu LCMS-2020 apparatus (UV chromatogram at 190 nm and mass spectrum in positive electrospray ionisation mode (ESI+)) after separation on the Waters Acquity column using a gradient of solvents H2O+HCOOH 0.1%/MeCN+HCOOH 0.1% (98/2 for 2 min, then 55/45 for 2 min and 45/55 for 3 min) with a flow rate of 0.3 mL/min at 40° C. and an injection of volume of 1 (“detection mode: scan, interface voltage: tuning file, DL voltage: 100 V, Q-array DC: 40 V, Q-array RF: 40 V”). A blank is first of all carried out using a solution containing the reaction medium without scavenger. Then, a free scavenger solution at 10 mM is used as a negative control and the carnosine as a reference of the literature. The proportion of adducts formed with the MGO or MDA (generally, tR=4.1 to 6.8 min) is then measured in relation to the quantity of remaining free scavenger (generally, tR=0.8 to 4.6 min) after measurement of the area under the curve of the corresponding peaks on the UV spectrum (measurements taken for a representative sample).

[3] = system: low-density lipoproteins (LDLs); test: Antiradical properties: inhibition of lipid peroxidation in AAPH-induced oxidation of LDLs; assay type: biochemical; settings: for anti-radical properties compared with Dap-Pip and vitamin E: concentrations from 1 to 10 μM; for antioxidant effect: concentrations ranging from 1 to 100; for antioxidant properties: low concentrations of about 1 μM
Procedure: The antiradical properties of the various compounds are determined by inhibition of the lipid peroxidation in the in vitro model of the oxidation of the low-density lipoproteins (LDLs) (Free Radic. Biol. Med., 1992, 13, 341-390). The lipid peroxidation is initiated by the attack by free radicals of a double bond of a polyunsaturated fatty acid present in the LDLs. […] Once initiated, the oxidation of the LDLs is a chain reaction of lipid peroxidation generated by the free radicals. The oxidation in vitro of the LDLs is induced at 37° C. by the adding of the water-soluble compound 2,2′-Azobis(2-methylpropionamidine)dihydrochloride (AAPH), which generates free radicals during the spontaneous thermal breakdown thereof
Briefly, the oxidation, carried out in a 96-well plate, is induced at 37° C. by adding 20 μL of a solution of AAPH at 2 mM in D-PBS at 160 μL of LDL (100 μg/mL) in the presence or absence of 20 μL of the various solutions of the compounds to be tested dissolved in D-PBS (0.1 to 100 μM in final concentrations). The LDLs alone without adding AAPH are used as a negative control. Each oxidation is carried out in double. During the oxidation, the formation of the conjugated dienes is followed by the measurement of the optical density at 234 nm every 10 minutes for 8 h at 37° C. using a temperature-controlled TECAN spectrophotometer. The vitamin E (α-tocopherol) which is a powerful antioxidant recognised in this in vitro model is used as a reference molecule (J. Nutr. Biochem., 2012, 23, 845-51).

[4] = system: rat pheochromocytoma cells, treated as neuronal cells (PC12); test: Cytotoxicity, cellular viability (CCK-8/WST-8) on PC12; assay type: cell-based; settings: rat
Procedure: as §1, §2, §3

[5] = MRC-5, 10 μM, 24 h of treatment
[6] = MRC-5, 10 μM, 48 h of treatment
[7] = MRC-5, 100 μM, 24 h of treatment
[8] = MRC-5, 100 μM, 48 h of treatment
[9] = lower concentrations, 0.1 to 10 μM

Row | SMILES | viability of the cells as a percentage of the untreated cells [1, 5] [%] | viability of the cells as a percentage of the untreated cells [1, 6] [%] | viability of the cells as a percentage of the untreated cells [1, 7] [%] | viability of the cells as a percentage of the untreated cells [1, 8] [%] | adducts with the MGO with regards to the free scavenger ([2]; after 5 h of reaction, no HPLC separation, trend) | antioxidant / pro-oxidant behaviour ([3]; concentrations ranging from 25 to 100) | antioxidant / pro-oxidant behaviour [3, 9] | viability of the cells as a percentage of the untreated cells ([4]; 24 h, 10 μM) [%] | viability of the cells as a percentage of the untreated cells ([4]; 24 h, 100 μM) [%] | viability of the cells as a percentage of the untreated cells ([4]; 48 h, 10 μM) [%] | viability of the cells as a percentage of the untreated cells ([4]; 48 h, 100 μM) [%] | disappearance of the free scavenger to the benefit of adducts with the MGO [2] | anti-radical properties compared with Dap-Pip and vitamin E [3] | antioxidant effect [3] | antioxidant properties [3] | antioxidant / pro-oxidant behaviour ([3]; concentrations ranging from 50 to 100)
1 | COc1cc(/C=C/C(=O)N2CCN(C(=O)CCC(N)CN)CC2)ccc1O (stereo not shown) [Compound 29a, (E)-4,5-diamino-1-(4-(3-(4-hydroxy-3-methoxyphenyl)acryloyl)piperazin-1-yl)pentan-1-one] | 103 | 104 | 99 | 103 | majority presence of AdB | antioxidants | pro-oxidants | 100 | 120 | 94 | 87 |  |  |  |  | 
2 | NCC(N)CCCNC(=O)CCn1cccc(O)c1=O (stereo not shown) [Compound 37a, N-(4,5-diaminopentyl)-3-(3-hydroxy-2-oxopyridin-1(2H)-yl)propanamide] | 112 | 107 | 124 | 105 |  |  |  | 93 | 112 | 96 | 99 | almost total disappearance of the free scavenger | higher than those of the 2nd generation Dap-Pip derivative, and even those of vitamin E | increasing antioxidant effect | best antioxidant properties | 
3 | NCC(N)CCCCNC(=O)CCn1cccc(O)c1=O (stereo not shown) [Compound 37b, N-(5,6-diaminohexyl)-3-(3-hydroxy-2-oxopyridin-1(2H)-yl)propanamide] | 113 | 103 | 113 | 101 |  |  |  | 138 | 124 | 115 | 107 | almost total disappearance of the free scavenger |  |  |  | 
4 | NCC(N)CCC(=O)NCCCn1cccc(O)c1=O (stereo not shown) [Compound 37c, 4,5-diamino-N-(3-(3-hydroxy-2-oxopyridin-1(2H)-yl)propyl)pentanamide] | 97 | 94 | 89 | 90 |  |  |  | 110 | 102 | 91 | 94 | almost total disappearance of the free scavenger | higher than those of the 2nd generation Dap-Pip derivative, and even those of vitamin E | increasing antioxidant effect | best antioxidant properties | 
5 | NCC(N)CCCCNC(=O)c1cc(O)c(O)c(O)c1 (stereo not shown) [Compound 30b, N-(5,6-diaminohexyl)-3,4,5-trihydroxybenzamide] | 98 | 92 | 101 | 100 |  |  | highly antioxidant | 110 | 82 | 95 | 67 |  | higher than those of the 2nd generation Dap-Pip derivative, and even those of vitamin E |  |  | highly pro-oxidant

Source: US10464920B2, “Vicinal primary diamines associated with metal and/or free radical chelation motifs, and active against carbonyl and oxidative stress, and use thereof” (UNIVERSITE AMIENS PICARDIE JULES VERNE, priority 2015, dated 2019)
